pIC50: −log10 of the molar value. No end group written: not given here.
What was measured:
X4 tropic HIV-1 NL4-3 = conditions: blocking X4 tropic HIV-1 NL4-3 infection
Method: (§1) Antiviral screening was performed using the X4 HIV-1 NL4-3 molecular clone.
(§2) HIV-1, HIV-2 and SIV molecular clones differing in coreceptor tropism were generated by transient transfection of 293T cells with proviral DNA by the calcium phosphate method (CalPhos™ Mammalian Transfection Kit, Clon-tech). After overnight incubation, the transfection mixture was replaced by DMEM medium supplemented with 10% FCS, and virus stocks were harvested 48 hrs post-transfection. Subsequently, the culture supernatant was centrifuged for 5 min at 3000 rpm to remove cell debris. The resulting virus stock was quantified by p24 (HIV) or p27 (SIV) antigen ELISA. Virus stocks were either used immediately or stored in aliquots at −80° C.
(§3) TZM-bl reporter cells containing the LacZ reporter gene under the control of the HIV-1 promoter were seeded in 96-well F-bottom microtiter plates (Greiner Bio-One). On the following day, the cells were preincubated with various dilutions of the peptide of SEQ ID NO 16 or its derivatives for 1 hour and subsequently infected with HIV-1, HIV-2, and SIV. Infection rates were determined after 2 days using the one-step Tropix Gal-Screen Kit, as recommended by the manufacturer.

X4 HIV-1 strains = tested on: X4 HIV-1 strains
Method: as §1, §2, §3

Candida albicans = experiment: Antifungal activity against Candida; type: cell-based
Jurkat T cells = experiment: CXCL12-induced migration of Jurkat T cells; type: cell-based
Method: Migration of Jurkat cells (ATCC) was analyzed using 6.5 mm diameter chambers with 5 μm pore filters (Transwell, 24-well cell culture, Coster, Boston, Mass.). 2×10^5 Jurkat cells were suspended in 200 μl Optimizer T-Cell Expansion SFM, and the cell suspensions were added to the upper chamber. Then, 10 nM CXCL12 (R&D System) and/or various concentrations of the peptide of SEQ ID NO 16 or its derivatives in 600 μl T-Cell Expansion SFM were added to the lower chamber. The cell culture chambers were incubated for 150 min in a cell culture incubator at 37° C. After incubation, chambers were removed, 100 μl of supernatants were taken and cells that migrated into the lower compartment were either counted directly using a hemocytometer or analyzed using the CellTiter-Glo Luminescent Cell Viability Assay as described above. All values represent mean numbers of migrated cells relative to CXCL12 only treated cells from a triplicate experiment±SD.

Staphylococus aureus = experiment: Antibacterial activity against Staphylococcus; type: cell-based
X4 HIV-2 strains = experiment: TZM-bl infection assay, X4 HIV-2; type: cell-based; conditions: effects relatively modest
Method: as §2, §3

[1] = tested on: wild-type (wt) HIV-1 NL4-3 in PBMCs; experiment: PBMC infection assay; type: cell-based; conditions: concentrations ≥4 μg/ml
Method: Peripheral blood mononuclear cells were isolated from Buffy coat derived from the DRK-Blutspendedienst Baden-Württemberg-Hessen using Ficoll density centrifugation. 1×10^6 PBMC per ml were stimulated with 1 μg/ml phytohemagglutinine (PHA, Oxoid, #3085280) and 10 ng/ml Interleukin 2 (IL-2, Strathmann, #9511192) for three days. Thereafter, cells were pelleted and resuspended in IL-2 containing medium. 2×10^5 PBMC were seeded in 96 well F-bottom microtiter plates, peptides were added and cells were infected with […] p24 antigen of X4 or R5 tropic viruses. Supernatants containing progeny virus were taken at every 2-3 days post infection. Virus production was measured by p24 antigen ELISA (NIH AIDS reagent program). The mean p24 antigen values (ng/ml) were derived from triplicate infections±standard deviation.

other GPCRs = experiment: GPCR antagonist screen; conditions: selectivity for CXCR4
Excerpt: GPCR Antagonist Screen of the Peptide of SEQ ID NO 16

SIV strains = experiment: TZM-bl infection assay, SIV; type: cell-based; conditions: effects relatively modest
Method: as §2, §3

In the case of “LVRYTKKVPQVSTPTL [Derivative 408-423, LVRYTKKVPQVSTPTL]”, the pIC50 (X4 tropic HIV-1 NL4-3) was 5.06, the “mean 50% inhibitory concentration (IC50), infection by X4 HIV-1 strains” value (X4 HIV-1 strains; mean over X4 HIV-1 strains, chemically synthesized peptide) was 15.8 µg/mL and the “HIV infection after pretreatment of viral target cells (not of virions)” value (X4 HIV-1 strains; pretreatment of target cells) was “effective reduction”. For the same sequence, the pIC50 (X4 HIV-1 strains; read-out: mean 50% inhibitory concentration (IC50), infection by X4 HIV-1 strains, corresponding to 15.8 μg/ml) was 5.07, the “effects against Candida albicans” value (Candida albicans) was “only modest effects” and the “CXCL12-induced migration of Jurkat T cells” value (Jurkat T cells) was “suppressed”. For the same sequence, the “effects against Staphylococus aureus” value (Staphylococus aureus) was “only modest effects”, the “infection by X4 HIV-2 strains” value (X4 HIV-2 strains) was “inhibits infection” and the “Replication of wild-type HIV-1 NL4-3 in PBMCs” value [1] was “markedly suppressed”. The “activity of a large number of other GPCRs” value (other GPCRs) was “not affected” and the “infection by SIV strains” value (SIV strains) was “inhibits infection”.

Reference: patent US10294272B2, “Peptides with antagonistic activities against natural CXCR4” (Pharis Biotec GmbH, priority 2013, dated 2019)
